Data from article PMC11345841, “Exploring 2-Sulfonylpyrimidine Warheads as Acrylamide Surrogates for Targeted Covalent Inhibition: A BTK Story” (Journal of Medicinal Chemistry, 2024).
Like-named read-outs stand apart in the source and are kept apart here.

Columns and labels:
Test in all cases: KINOMEscan ScanTK
Format in all cases: binding
[1] = target: T1, KIT(V559D) (Homo sapiens, UniProt P10721, V559D)
T1 construct: purchased Eurofins DiscoverX KINOMEscan (scanTK)

[2] = target: T2, TRKB (Homo sapiens, UniProt Q16620)
T2 construct: purchased Eurofins DiscoverX KINOMEscan (scanTK)
T2 sequence (Q16620 32-822): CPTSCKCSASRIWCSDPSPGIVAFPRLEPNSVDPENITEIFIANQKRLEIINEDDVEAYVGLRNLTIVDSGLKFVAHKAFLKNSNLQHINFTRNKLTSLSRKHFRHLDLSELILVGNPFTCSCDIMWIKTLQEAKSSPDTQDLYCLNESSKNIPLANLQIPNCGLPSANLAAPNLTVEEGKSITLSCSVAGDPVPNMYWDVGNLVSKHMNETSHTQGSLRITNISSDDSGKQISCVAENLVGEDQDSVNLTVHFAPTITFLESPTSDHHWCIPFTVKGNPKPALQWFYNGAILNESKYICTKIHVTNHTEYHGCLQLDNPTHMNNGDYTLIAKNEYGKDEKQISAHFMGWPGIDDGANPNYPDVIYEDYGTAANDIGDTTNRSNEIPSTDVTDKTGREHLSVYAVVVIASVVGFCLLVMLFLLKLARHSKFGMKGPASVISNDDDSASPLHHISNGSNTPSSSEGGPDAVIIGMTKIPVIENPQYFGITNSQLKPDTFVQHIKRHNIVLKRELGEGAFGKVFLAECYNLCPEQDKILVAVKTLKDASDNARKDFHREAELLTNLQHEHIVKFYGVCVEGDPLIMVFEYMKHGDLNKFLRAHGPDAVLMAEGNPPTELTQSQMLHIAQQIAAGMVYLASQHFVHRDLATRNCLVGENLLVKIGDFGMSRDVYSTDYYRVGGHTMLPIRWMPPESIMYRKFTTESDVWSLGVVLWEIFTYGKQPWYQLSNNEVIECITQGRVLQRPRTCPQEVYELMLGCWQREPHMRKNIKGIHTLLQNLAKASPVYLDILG

[3] = target: T3, KIT (Homo sapiens, UniProt P10721)
T3 construct: purchased Eurofins DiscoverX KINOMEscan (scanTK)
T3 sequence (P10721 26-976): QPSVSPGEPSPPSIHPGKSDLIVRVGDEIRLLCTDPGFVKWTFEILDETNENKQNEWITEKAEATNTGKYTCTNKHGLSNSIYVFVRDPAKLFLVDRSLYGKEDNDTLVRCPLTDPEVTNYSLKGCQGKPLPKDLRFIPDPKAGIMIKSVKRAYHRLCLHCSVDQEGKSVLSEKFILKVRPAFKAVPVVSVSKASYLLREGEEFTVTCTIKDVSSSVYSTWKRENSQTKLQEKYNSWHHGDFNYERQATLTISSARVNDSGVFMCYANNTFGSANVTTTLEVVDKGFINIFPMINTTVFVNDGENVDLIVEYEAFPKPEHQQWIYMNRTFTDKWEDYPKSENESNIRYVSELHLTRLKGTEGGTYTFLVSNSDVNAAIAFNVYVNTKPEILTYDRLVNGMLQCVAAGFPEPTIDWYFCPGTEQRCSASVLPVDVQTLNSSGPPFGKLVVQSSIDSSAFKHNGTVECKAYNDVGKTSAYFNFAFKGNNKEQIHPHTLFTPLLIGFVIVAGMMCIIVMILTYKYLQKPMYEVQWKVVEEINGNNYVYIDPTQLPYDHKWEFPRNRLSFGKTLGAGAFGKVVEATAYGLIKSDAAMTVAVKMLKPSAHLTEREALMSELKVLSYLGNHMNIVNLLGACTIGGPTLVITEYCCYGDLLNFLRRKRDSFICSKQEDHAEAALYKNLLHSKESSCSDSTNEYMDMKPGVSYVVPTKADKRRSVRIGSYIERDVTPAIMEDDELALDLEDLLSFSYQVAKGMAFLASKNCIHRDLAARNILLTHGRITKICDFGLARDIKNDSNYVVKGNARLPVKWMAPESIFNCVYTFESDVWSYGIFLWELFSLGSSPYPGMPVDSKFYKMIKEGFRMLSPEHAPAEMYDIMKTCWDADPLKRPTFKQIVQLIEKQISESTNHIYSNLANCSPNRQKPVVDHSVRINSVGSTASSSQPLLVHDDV

[4] = target: T4, TYK2(JH1domain-catalytic) (Homo sapiens, UniProt P29597)
T4 construct: TYK2(JH1domain-catalytic); purchased Eurofins DiscoverX KINOMEscan (scanTK)
T4 sequence (P29597 888-1187 limits assumed): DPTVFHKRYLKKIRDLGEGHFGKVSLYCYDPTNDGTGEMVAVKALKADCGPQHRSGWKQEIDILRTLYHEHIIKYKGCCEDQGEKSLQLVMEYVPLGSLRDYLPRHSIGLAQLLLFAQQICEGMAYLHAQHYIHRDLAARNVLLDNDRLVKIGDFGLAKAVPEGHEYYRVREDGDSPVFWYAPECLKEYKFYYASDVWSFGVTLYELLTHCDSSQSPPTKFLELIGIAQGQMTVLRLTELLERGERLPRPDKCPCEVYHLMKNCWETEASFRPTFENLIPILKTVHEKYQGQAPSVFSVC

[5] = target: T5, JAK1(JH1domain-catalytic) (Homo sapiens, UniProt P23458)
T5 construct: JAK1(JH1domain-catalytic); purchased Eurofins DiscoverX KINOMEscan (scanTK)
T5 sequence (P23458 875-1154 limits assumed): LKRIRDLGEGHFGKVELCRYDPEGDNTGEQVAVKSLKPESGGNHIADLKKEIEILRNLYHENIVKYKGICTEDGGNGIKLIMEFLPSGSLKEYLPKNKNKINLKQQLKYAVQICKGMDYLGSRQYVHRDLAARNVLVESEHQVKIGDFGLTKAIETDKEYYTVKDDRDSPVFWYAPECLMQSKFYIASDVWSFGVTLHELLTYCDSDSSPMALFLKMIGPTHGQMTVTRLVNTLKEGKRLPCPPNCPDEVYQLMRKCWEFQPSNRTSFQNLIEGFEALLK

[6] = target: T6, MET(Y1235D) (Homo sapiens, UniProt P08581, Y1235D)
T6 construct: purchased Eurofins DiscoverX KINOMEscan (scanTK)
T6 sequence (P08581 25-1390 Y1235D): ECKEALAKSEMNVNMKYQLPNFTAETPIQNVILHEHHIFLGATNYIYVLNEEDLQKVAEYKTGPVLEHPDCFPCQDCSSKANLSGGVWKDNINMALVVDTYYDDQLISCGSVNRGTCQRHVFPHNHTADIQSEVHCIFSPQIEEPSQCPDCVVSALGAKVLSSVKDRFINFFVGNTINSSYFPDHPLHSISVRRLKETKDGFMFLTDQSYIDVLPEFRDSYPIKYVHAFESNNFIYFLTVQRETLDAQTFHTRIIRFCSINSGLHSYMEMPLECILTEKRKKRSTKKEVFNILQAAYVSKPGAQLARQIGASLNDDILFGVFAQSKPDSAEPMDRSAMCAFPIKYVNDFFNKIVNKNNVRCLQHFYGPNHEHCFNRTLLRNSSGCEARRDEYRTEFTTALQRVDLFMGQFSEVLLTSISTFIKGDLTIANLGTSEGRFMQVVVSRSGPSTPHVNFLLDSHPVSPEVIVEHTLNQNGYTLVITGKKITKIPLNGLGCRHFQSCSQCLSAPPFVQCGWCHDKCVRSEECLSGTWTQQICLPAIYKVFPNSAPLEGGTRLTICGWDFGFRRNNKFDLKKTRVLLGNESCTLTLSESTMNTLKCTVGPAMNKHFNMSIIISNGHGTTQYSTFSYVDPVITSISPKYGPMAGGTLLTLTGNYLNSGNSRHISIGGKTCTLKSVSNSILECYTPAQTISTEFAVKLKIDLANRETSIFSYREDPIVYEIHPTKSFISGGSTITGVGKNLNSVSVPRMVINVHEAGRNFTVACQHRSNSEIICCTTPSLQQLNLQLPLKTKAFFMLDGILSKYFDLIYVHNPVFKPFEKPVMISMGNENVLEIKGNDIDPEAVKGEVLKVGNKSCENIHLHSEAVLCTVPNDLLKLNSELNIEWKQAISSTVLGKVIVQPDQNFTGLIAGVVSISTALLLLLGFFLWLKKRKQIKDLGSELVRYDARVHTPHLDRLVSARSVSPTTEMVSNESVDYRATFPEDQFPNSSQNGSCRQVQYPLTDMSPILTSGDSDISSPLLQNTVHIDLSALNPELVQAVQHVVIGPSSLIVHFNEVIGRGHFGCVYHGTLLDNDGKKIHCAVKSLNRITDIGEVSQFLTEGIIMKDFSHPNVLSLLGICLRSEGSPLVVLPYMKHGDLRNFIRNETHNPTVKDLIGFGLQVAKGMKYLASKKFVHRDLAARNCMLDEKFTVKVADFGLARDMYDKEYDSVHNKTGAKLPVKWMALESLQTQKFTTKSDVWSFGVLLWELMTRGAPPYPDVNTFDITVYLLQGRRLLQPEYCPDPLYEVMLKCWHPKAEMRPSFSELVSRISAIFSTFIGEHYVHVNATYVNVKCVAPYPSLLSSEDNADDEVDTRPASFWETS

[7] = target: T7, EPHA3 (Homo sapiens, UniProt P29320)
T7 construct: purchased Eurofins DiscoverX KINOMEscan (scanTK)
T7 sequence (P29320 21-983): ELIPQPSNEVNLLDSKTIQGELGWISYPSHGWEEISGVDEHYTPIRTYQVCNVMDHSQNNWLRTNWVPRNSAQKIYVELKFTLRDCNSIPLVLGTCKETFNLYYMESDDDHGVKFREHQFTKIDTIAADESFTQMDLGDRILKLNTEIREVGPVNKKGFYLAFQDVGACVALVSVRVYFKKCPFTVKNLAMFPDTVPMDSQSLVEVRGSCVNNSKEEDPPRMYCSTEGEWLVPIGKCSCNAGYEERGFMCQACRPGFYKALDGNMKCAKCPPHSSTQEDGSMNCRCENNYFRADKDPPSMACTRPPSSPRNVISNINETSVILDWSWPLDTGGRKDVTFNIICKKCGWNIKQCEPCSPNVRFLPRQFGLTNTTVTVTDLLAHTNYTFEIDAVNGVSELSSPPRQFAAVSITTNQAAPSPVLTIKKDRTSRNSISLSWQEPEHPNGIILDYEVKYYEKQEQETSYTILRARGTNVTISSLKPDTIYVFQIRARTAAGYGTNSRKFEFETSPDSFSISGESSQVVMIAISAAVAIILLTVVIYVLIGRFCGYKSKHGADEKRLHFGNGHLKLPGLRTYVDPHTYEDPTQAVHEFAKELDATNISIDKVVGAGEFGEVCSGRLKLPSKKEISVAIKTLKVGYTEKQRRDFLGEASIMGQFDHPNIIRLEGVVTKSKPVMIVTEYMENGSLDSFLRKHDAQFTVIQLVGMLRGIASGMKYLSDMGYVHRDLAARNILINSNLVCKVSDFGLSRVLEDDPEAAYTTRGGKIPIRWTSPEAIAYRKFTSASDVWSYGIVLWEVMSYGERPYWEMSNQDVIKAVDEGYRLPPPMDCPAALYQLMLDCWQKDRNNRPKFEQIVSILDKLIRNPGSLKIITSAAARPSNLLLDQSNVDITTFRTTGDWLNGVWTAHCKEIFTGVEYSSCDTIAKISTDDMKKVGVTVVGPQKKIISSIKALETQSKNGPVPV

[8] = target: T8, EGFR(T790M) (Homo sapiens, UniProt P00533, T790M)
T8 construct: purchased Eurofins DiscoverX KINOMEscan (scanTK)

[9] = target: T9, ABL1(F317L)-phosphorylated (Homo sapiens, UniProt P00519, F317L)
T9 construct: purchased Eurofins DiscoverX KINOMEscan (scanTK)
T9 sequence (P00519 whole entry F317L): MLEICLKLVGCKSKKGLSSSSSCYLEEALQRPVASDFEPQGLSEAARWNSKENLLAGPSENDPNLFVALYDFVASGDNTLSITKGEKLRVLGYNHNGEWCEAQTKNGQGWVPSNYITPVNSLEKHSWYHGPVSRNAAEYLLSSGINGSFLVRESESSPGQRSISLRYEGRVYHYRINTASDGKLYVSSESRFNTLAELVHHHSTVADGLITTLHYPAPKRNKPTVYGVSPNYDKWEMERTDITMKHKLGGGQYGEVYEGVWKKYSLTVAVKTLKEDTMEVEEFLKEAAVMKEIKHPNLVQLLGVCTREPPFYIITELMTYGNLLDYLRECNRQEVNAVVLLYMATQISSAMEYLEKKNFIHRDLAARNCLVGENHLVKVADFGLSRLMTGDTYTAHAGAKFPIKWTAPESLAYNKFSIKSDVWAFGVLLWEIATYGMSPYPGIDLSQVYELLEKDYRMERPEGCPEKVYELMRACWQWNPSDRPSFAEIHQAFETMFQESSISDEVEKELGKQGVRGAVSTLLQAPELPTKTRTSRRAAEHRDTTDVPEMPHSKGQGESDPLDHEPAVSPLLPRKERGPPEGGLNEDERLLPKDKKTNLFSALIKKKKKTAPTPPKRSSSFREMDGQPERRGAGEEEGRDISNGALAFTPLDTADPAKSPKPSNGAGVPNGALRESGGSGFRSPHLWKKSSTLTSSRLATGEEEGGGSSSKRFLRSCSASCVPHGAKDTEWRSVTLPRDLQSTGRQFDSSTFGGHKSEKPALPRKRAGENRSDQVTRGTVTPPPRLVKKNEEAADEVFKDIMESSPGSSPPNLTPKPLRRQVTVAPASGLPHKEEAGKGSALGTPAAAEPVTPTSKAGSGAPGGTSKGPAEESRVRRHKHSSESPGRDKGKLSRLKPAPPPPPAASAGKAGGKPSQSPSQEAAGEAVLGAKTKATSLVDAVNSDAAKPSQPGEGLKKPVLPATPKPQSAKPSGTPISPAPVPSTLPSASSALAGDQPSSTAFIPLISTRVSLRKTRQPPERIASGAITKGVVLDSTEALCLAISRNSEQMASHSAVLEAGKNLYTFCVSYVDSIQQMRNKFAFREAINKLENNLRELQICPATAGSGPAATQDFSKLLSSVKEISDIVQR

[10] = target: T10, EGFR(L861Q) (Homo sapiens, UniProt P00533, L861Q)
T10 construct: purchased Eurofins DiscoverX KINOMEscan (scanTK)

[11] = target: T11, ALK(C1156Y) (Homo sapiens, UniProt Q9UM73, C1156Y)
T11 construct: purchased Eurofins DiscoverX KINOMEscan (scanTK)

[12] = target: T12, RET(V804M) (Homo sapiens, UniProt P07949, V804M)
T12 construct: purchased Eurofins DiscoverX KINOMEscan (scanTK)

[13] = target: T13, LCK (Homo sapiens, UniProt P06239)
T13 construct: purchased Eurofins DiscoverX KINOMEscan (scanTK)

[14] = target: T14, LYN (Homo sapiens, UniProt P07948)
T14 construct: purchased Eurofins DiscoverX KINOMEscan (scanTK)
T14 sequence (P07948 whole entry): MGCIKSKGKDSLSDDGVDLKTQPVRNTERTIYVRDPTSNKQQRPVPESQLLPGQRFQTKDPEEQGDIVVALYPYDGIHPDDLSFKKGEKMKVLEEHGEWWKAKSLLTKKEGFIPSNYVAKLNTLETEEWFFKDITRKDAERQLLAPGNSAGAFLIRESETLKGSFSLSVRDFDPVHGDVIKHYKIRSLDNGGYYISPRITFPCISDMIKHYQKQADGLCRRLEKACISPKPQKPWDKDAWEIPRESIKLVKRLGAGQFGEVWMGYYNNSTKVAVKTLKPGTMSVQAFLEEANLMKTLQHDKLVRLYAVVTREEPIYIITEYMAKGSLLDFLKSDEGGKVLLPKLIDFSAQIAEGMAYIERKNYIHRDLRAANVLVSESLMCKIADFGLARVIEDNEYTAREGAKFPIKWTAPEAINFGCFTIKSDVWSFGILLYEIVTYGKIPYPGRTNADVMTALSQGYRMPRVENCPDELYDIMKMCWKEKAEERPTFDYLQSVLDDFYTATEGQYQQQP

[15] = @1000nM, TRKB, read-out: %Control
[16] = TRKB, read-out: %Control @1000nM

T1 sequence (P10721 26-976 V559D): as the sequence (P10721 26-976) above, with V534D counted along it

Structure (SMILES) | remaining binding at 1 µM ([1]; @1000nM, read-out: %Control) [%] | remaining binding at 1 µM ([1]; read-out: %Control @1000nM) [%] | difference in %Control versus compound Ib at 1 µM ([2]; @1000nM, TRKB) [%] | remaining binding at 1 µM [2, 15] [%] | remaining binding at 1 µM [2, 16] [%] | difference in %Control versus compound Ib at 1 µM ([3]; @1000nM) [%] | remaining binding at 1 µM ([3]; @1000nM, read-out: %Control) [%] | remaining binding at 1 µM ([3]; read-out: %Control @1000nM) [%] | remaining binding at 1 µM ([5]; @1000nM, read-out: %Control) [%] | remaining binding at 1 µM ([5]; read-out: %Control @1000nM) [%] | remaining binding at 1 µM ([6]; @1000nM, read-out: %Control) [%] | remaining binding at 1 µM ([6]; read-out: %Control @1000nM) [%] | remaining binding at 1 µM ([7]; @1000nM, read-out: %Control) [%] | remaining binding at 1 µM ([7]; read-out: %Control @1000nM) [%] | remaining binding at 1 µM ([11]; @1000nM, read-out: %Control) [%] | remaining binding at 1 µM ([11]; read-out: %Control @1000nM) [%] | remaining binding at 1 µM ([12]; @1000nM, read-out: %Control) [%] | remaining binding at 1 µM ([12]; read-out: %Control @1000nM) [%] | remaining binding at 1 µM ([14]; @1000nM, read-out: %Control) [%] | remaining binding at 1 µM ([14]; read-out: %Control @1000nM) [%] | further results
CNC(=O)c1cnc(S(C)(=O)=O)nc1N1CCCC(n2nc(-c3ccc(Oc4ccccc4)cc3)c3c(N)ncnc32)C1 (stereo not drawn) [Compound 8d, 4-(3-(4-Amino-3-(4-phenoxyphenyl)-1H-pyrazolo[3,4-d]pyrimidin-1-yl)piperidin-1-yl)-N-methyl-2-(methylsulfonyl)pyrimidine-5-carboxamide] | 60 | 60 | -5 | 87 | 87 | 58 | 99 | 99 | 100 | 100 | 91 | 91 | 84 | 84 | 88 | 88 | 100 | 100 | 43 | 43 | remaining binding at 1 µM ([4]; @1000nM, read-out: %Control): 100%; remaining binding at 1 µM ([4]; read-out: %Control @1000nM): 100%; difference in %Control versus compound Ib at 1 µM ([5]; @1000nM): 6%; difference in % of control versus compound Ib at 1 µM ([7]; @1000nM): 8%; difference in % of control versus compound Ib at 1 µM ([8]; @1000nM): 18.6%; remaining binding at 1 µM ([8]; @1000nM, read-out: %Control): 19%; remaining binding at 1 µM ([8]; read-out: %Control @1000nM): 19%; difference in %Control from compound Ib at 1 µM ([9]; @1000nM): 39%; remaining binding at 1 µM ([9]; @1000nM, read-out: %Control): 76%; remaining binding at 1 µM ([9]; read-out: %Control @1000nM): 76%; difference in % of control versus compound Ib at 1 µM ([10]; @1000nM): 28.2%; remaining binding at 1 µM ([10]; @1000nM, read-out: %Control): 29%; remaining binding at 1 µM ([10]; read-out: %Control @1000nM): 29%; difference in %Control versus compound Ib at 1 µM ([11]; @1000nM): -10%; remaining binding at 1 µM ([13]; @1000nM, read-out: %Control): 4%; remaining binding at 1 µM ([13]; read-out: %Control @1000nM): 4%
CCOC(=O)c1cnc(S(C)(=O)=O)nc1N1CCC[C@@H](n2nc(-c3ccc(Oc4ccccc4)cc3)c3c(N)ncnc32)C1 [Compound 8c, Ethyl (R)-4-(3-(4-Amino-3-(4-phenoxyphenyl)-1H-pyrazolo[3,4-d]pyrimidin-1-yl)piperidin-1-yl)-2-(methylsulfonyl)pyrimidine-5-carboxylate] | 70 | 70 | -15 | 77 | 77 | 52 | 93 | 93 | 100 | 100 | 100 | 100 | 77 | 77 | 90 | 90 | 100 | 100 | 72 | 72 | remaining binding at 1 µM ([4]; @1000nM, read-out: %Control): 100%; remaining binding at 1 µM ([4]; read-out: %Control @1000nM): 100%; difference in %Control versus compound Ib at 1 µM ([5]; @1000nM): 6%; difference in % of control versus compound Ib at 1 µM ([7]; @1000nM): 1%; difference in % of control versus compound Ib at 1 µM ([8]; @1000nM): 72.5%; remaining binding at 1 µM ([8]; @1000nM, read-out: %Control): 73%; remaining binding at 1 µM ([8]; read-out: %Control @1000nM): 73%; difference in %Control from compound Ib at 1 µM ([9]; @1000nM): 49%; remaining binding at 1 µM ([9]; @1000nM, read-out: %Control): 86%; remaining binding at 1 µM ([9]; read-out: %Control @1000nM): 86%; difference in % of control versus compound Ib at 1 µM ([10]; @1000nM): 81.2%; remaining binding at 1 µM ([10]; @1000nM, read-out: %Control): 82%; remaining binding at 1 µM ([10]; read-out: %Control @1000nM): 82%; difference in %Control versus compound Ib at 1 µM ([11]; @1000nM): -8%; remaining binding at 1 µM ([13]; @1000nM, read-out: %Control): 25%; remaining binding at 1 µM ([13]; read-out: %Control @1000nM): 25%
C=CC(=O)N1CCC[C@@H](n2nc(-c3ccc(Oc4ccccc4)cc3)c3c(N)ncnc32)C1 [Compound 1g, Ibrutinib, reference compound] | 27 | 27 | – | – | – | – | 41 | 41 | 94 | 94 | 96 | 96 | 76 | 76 | 98 | 98 | 100 | 100 | 16 | 16 | remaining binding at 1 µM ([2]; read-out: %Control): 92%; remaining binding at 1 µM ([2]; read-out: %Control @1000nM): 92%
